Tests used:
Assay type in all cases: cell-based
[1] = test system: human colon cancer cell line HT 29; assay: Growth inhibition assay (MTT), HT 29; details: Table VI, 6 days incubation
Description: (§1) As another example of evaluation of cytotoxicity, cancer cell lines were also used for a growth inhibition assay. The human colon cancer cell lines SW 480 and HT 29 and the murine melanoma cell line B16F10 were used. […] After confluent growth, the cells were trypsinated and resuspended in RPMI plus 10% FCS to a cell concentration of 50000 cells per ml in case of colon cancer cell lines and 20000 in case of B16F10. 100 μl of this cell suspension were transferred in each well of a 96 well microtiter plate and incubated for 1 day at 37° C. in a CO2-incubator. Subsequently, further 100 μl RPMI medium and 1 μl of a DMSO solution, containing the artemisinin derivatives were added. The growth inhibition was estimated after 6 days incubation at 36° C. using the MTT assay.
(§2) 25 μl MTT solution (3-(4,5-dimethylthiazol-2-yl)-2,5-diphenyltetrazolium-bromid) of a starting concentration of 5 mg/ml H2O were added and incubated at 37° C. for 5 h. Subsequently, 100 μl iso-propanol per well were added. After 15 min incubation 100 μl H2O were added. After 30 min shaking, the extinction was measured at 595 nm using a ELISA-Multiplate Reader.

[2] = test system: Rat 6 subclone of the immortalized F2408 embryo cell line (R6); assay: Screening for cytotoxicity, cell count by Coulter Counter, R6 cells; details: for LD50 (Day 3) R6: day 3 after addition; for LD50 (Day 6) R6: day 6 after addition
Description: (§3) Compounds of the invention were screened against Rat 6 subclone of the immortalized F2408 embryo cell line, and Rat 6 (R6T24) cells transfected and transformed by a c-H-ras oncogene. The screening involved placing the R6 and R6T24 cell lines plated at 10^3 cells per well into a 12-well microtiter culture plate for 24 hours. The compounds were added at final concentrations from 0.1-100 μM, and cells were trypsized and counted by Coulter Counter at day 3 and day 6 after the addition. Untreated cells were assigned a survival value of 100%.

[3] = test system: Rat 6 (R6T24) cells transfected and transformed by a c-H-ras oncogene; assay: Screening for cytotoxicity, cell count by Coulter Counter, R6T24 cells; details: R6T24 cell line; for LD50 (Day 3) R6T24: day 3 after addition; for LD50 (Day 6) R6T24: day 6 after addition
Description: as §3

[4] = test system: murine melanoma cell line B16F10; assay: Growth inhibition assay (MTT), B16F10; details: Table VI, 6 days incubation
Description: as §1, §2

[5] = test system: human colon cancer cell line SW 480; assay: Growth inhibition assay (MTT), SW 480; details: Table VI, 6 days incubation
Description: as §1, §2

[6] = test system: DNA within the cell; assay: DNA comet assay; details: cells after 3 or 6 day treatment
Description: In this technique, cells are embedded in agarose gel on a frosted slide after 3 or 6 day treatment, the cells are then lysed and submitted to electrophoresis. The DNA was stained after electrophoresis by ethidium bromide and images of the DNA “comets” were obtained by using an image analysis software package.

SMILES	LD50 HT 29 [1] [nM]	LD50 (Day 3) R6 ([2]; Table VA) [µM]	LD50 (Day 6) R6 ([2]; Table VA) [µM]	LD50 (Day 3) R6T24 ([3]; Table VA) [µM]	LD50 (Day 6) R6T24 ([3]; Table VA) [µM]	LD50 B16F18 [4] [nM]	LD50 SW 480 [5] [nM]	LD50 (Day 3) R6 ([2]; Table V) [µM]	LD50 (Day 6) R6 ([2]; Table V) [µM]	LD50 (Day 3) R6T24 ([3]; Table V) [µM]	LD50 (Day 6) R6T24 ([3]; Table V) [µM]	binding to DNA (DNA comet assay technique) [6]	DNA damage in the DNA comet assay [6]
C[C@@H]1CC[C@H]2[C@@H](C)C(c3cc4ccccc4c4ccccc34)O[C@@H]3O[C@@]4(C)CC[C@@H]1[C@]32OO4 (stereo partly drawn) [Example 56]	300	0.38	0.26	0.24	0.21	300	200	–	–	–	–	–	–
C[C@@H]1CC[C@H]2[C@@H](C)C(=O)N(Cc3ccccc3F)[C@@H]3O[C@@]4(C)CC[C@@H]1[C@@]23OO4 [Example 15, 11-aza-N-(2-fluorobenzyl)artemisinin]	1500	>50	>50	22.7	1.69	300	200	22.70	>50.00	>50.00	1.69	–	–
Cc1cc(C)c(C2O[C@@H]3O[C@@]4(C)CC[C@H]5[C@H](C)CC[C@@H]([C@H]2C)[C@@]35OO4)c(C)c1 (stereo partly drawn) [Example 60]	300	–	–	–	–	250	150	–	–	–	–	–	–
CC1CCC2[C@@H](C)C(O)OC3O[C@]4(C)CCC1C32OO4 (stereo partly drawn) [Dihydroartemisinin, dihydroartemisinin, reference compound]	–	1.64	0.86	2.22	0.24	–	–	1.64	0.86	2.22	0.24	does not bind to DNA	–
C[C@@H]1CC[C@H]2[C@@H](C)C(c3ccc4ccccc4c3)O[C@@H]3O[C@@]4(C)CC[C@@H]1[C@]32OO4 (stereo partly drawn) [Example 28]	300	–	–	–	–	300	150	–	–	–	–	–	–
C[C@@H]1CC[C@H]2[C@@H](C)C(Nc3ccc(Br)cc3)O[C@@H]3O[C@@]4(C)CC[C@@H]1[C@]32OO4 (stereo partly drawn) [Example 33]	500	–	–	–	–	200	60	–	–	–	–	–	–
COc1ccc(C2OC3OC4(C)CCC5C(C)CCC(C2C)C35OO4)c(OC)c1 (stereo not drawn) [Example 4, 10-(2′,4′-dimethoxyphenyl)dihydroartemisinin]	–	1.37	0.29	1.09	0.13	–	–	1.37	0.29	1.09	0.13	–	strong DNA damage
CC1CCC2C(C)C(OCc3cccc(F)c3)OC3OC4(C)CCC1C32OO4 (stereo not drawn) [Example 78]	1500	–	–	–	–	200	250	–	–	–	–	–	–

From patent publication US6649647B1, “Trioxane derivatives” (priority 1998, dated 2003)
